Patent US10376520B2, “Methods for the treatment of cardiovascular disorders” (Galapagos NV, priority 2015, dated 2019)

Tested on: Subjects With Active Crohn's Disease
Test: Total cholesterol determination, Study 5 (Crohn's disease, monotherapy of Compound 1)
Assay type: in vivo, human
Settings: for [Total cholesterol] Mean CFB - 10 weeks results / [Total cholesterol] Median CFB - 10 weeks results / [Total cholesterol] Median CFB / [total cholesterol] Mean CFB: 200 mg q.d.; for [Total cholesterol] Median CFB / [total cholesterol] Mean CFB: Study 5 10 weeks results
Excerpt: Double-Blind, Randomized, Placebo-Controlled, Multi-Centre Study to Investigate the Efficacy and Safety of Compound 1 in Subjects With Active Crohn's Disease With Evidence of Mucosal Ulceration.
This is a double-blind, randomized, placebo-controlled, multi-centre Phase 2 study to investigate the efficacy and safety of Compound 1 administered once daily for the treatment of active CD with evidence of mucosal ulceration. The pharmacokinetics (including a PK substudy) and pharmacodynamics of Compound 1 and metabolite in CD will also be characterised.
A total of 180 eligible subjects will be randomized to receive Compound 1 or placebo in addition to their stable background treatment (eg, corticosteroids, aminosalicylates, or CD-related antibiotics). The study will consist of 2 parts, with total treatment duration of 20 weeks. Randomization in Part 1 will be stratified according the subject's previous anti-TNF exposure/response, CRP level at Screening, and oral corticosteroid use at visit Day −1.
After the first 10 weeks of treatment in Part 1, patients will be re-randomized for Part 2 as shown in the diagram below and will be stratified according to the subject's clinical response, previous anti-TNF exposure/response, and oral corticosteroid use at visit Day −1.
The following assays were conducted at Eurofins Global Central Laboratory, Bergschot 71, 4817 PA Breda, The Netherlands, and at Quest Diagnostics, Clinical Trials, Quest House, 125-135 Staines Road, Hounslow, Middlesex, TW3 3JB, United Kingdom. The assays for Study 5 were performed at BARC Europe, 3B, Industrie Park, Zwijnaarde, B-9052 Ghent, Belgium.
This method is based on the determination of Δ^4 cholestenone after enzymatic cleavage of the cholesterol ester by cholesterol esterase, conversion of cholesterol by cholesterol oxidase, and subsequent measurement by the Trinder reaction of the hydrogen peroxide formed (Allain et al., 1974).
Cholesterol esters are cleaved by the action of cholesterol esterase to yield free cholesterol and fatty acids. Cholesterol oxidase then catalyzes the oxidation of cholesterol to cholest-4-en-3-one and hydrogen peroxide. In the presence of peroxidase, the hydrogen peroxide formed effects the oxidative coupling of phenol and 4-aminophenazone to form a red quinone-imine dye. The color intensity of the dye formed is directly proportional to the cholesterol concentration. It is determined by measuring the increase in absorbance.
Human serum and plasma samples cholesterol determination was done on a Roche/Hitachi Cobas c 701/702 system which automatically calculate the analyte concentration of each sample.

[1] = 200 mg q.d. continued to week 20, week 2
[2] = 200 mg q.d. continued to week 20, week 4
[3] = 200 mg q.d. continued to week 20, week 6
[4] = 200 mg q.d. continued to week 20, week 10
[5] = 200 mg q.d. continued to week 20, week 12
[6] = 200 mg q.d. continued to week 20, week 16
[7] = 200 mg q.d. continued to week 20, week 20
[8] = 200 mg q.d. week 0 to 10, to 100 mg q.d. week 10 to 20, week 2
[9] = 200 mg q.d. week 0 to 10, to 100 mg q.d. week 10 to 20, week 4
[10] = 200 mg q.d. week 0 to 10, to 100 mg q.d. week 10 to 20, week 6
[11] = 200 mg q.d. week 0 to 10, to 100 mg q.d. week 10 to 20, week 10
[12] = 200 mg q.d. week 0 to 10, to 100 mg q.d. week 10 to 20, week 12
[13] = 200 mg q.d. week 0 to 10, to 100 mg q.d. week 10 to 20, week 16
[14] = 200 mg q.d. week 0 to 10, to 100 mg q.d. week 10 to 20, week 20
[15] = 200 mg q.d. week 0 to 10, to placebo week 10 to 20, week 2
[16] = 200 mg q.d. week 0 to 10, to placebo week 10 to 20, week 4
[17] = 200 mg q.d. week 0 to 10, to placebo week 10 to 20, week 6
[18] = 200 mg q.d. week 0 to 10, to placebo week 10 to 20, week 10
[19] = 200 mg q.d. week 0 to 10, to placebo week 10 to 20, week 12
[20] = 200 mg q.d. week 0 to 10, to placebo week 10 to 20, week 16
[21] = 200 mg q.d. week 0 to 10, to placebo week 10 to 20, week 20

## O=C(Nc1nc2cccc(-c3ccc(CN4CCS(=O)(=O)CC4)cc3)n2n1)C1CC1 [Compound 1, cyclopropanecarboxylic acid {5-[4-(1,1-dioxo-thiomorpholin-4-ylmethyl)-phenyl]-[1,2,4]triazolo[1,5-a]pyridin-2yl}-amide]
[1]
  [Total cholesterol] Mean CFB - 20 weeks results: 7.30%
  [Total cholesterol] Median CFB - 20 weeks results: 5.15%
[2]
  [Total cholesterol] Mean CFB - 20 weeks results: 5.06%
  [Total cholesterol] Median CFB - 20 weeks results: 2.70%
[3]
  [Total cholesterol] Mean CFB - 20 weeks results: 6.70%
  [Total cholesterol] Median CFB - 20 weeks results: 7.88%
[4]
  [Total cholesterol] Mean CFB - 20 weeks results: 11.58%
  [Total cholesterol] Median CFB - 20 weeks results: 9.98%
[5]
  [Total cholesterol] Mean CFB - 20 weeks results: 11.06%
  [Total cholesterol] Median CFB - 20 weeks results: 6.99%
[6]
  [Total cholesterol] Mean CFB - 20 weeks results: 11.13%
  [Total cholesterol] Median CFB - 20 weeks results: 6.91%
[7]
  [Total cholesterol] Mean CFB - 20 weeks results: 11.03%
  [Total cholesterol] Median CFB - 20 weeks results: 5.31%
[8]
  [Total cholesterol] Mean CFB - 20 weeks results: 4.54%
  [Total cholesterol] Median CFB - 20 weeks results: 4.08%
[9]
  [Total cholesterol] Mean CFB - 20 weeks results: 6.72%
  [Total cholesterol] Median CFB - 20 weeks results: 1.92%
[10]
  [Total cholesterol] Mean CFB - 20 weeks results: 6.47%
  [Total cholesterol] Median CFB - 20 weeks results: 5.89%
[11]
  [Total cholesterol] Mean CFB - 20 weeks results: 9.72%
  [Total cholesterol] Median CFB - 20 weeks results: 7.10%
[12]
  [Total cholesterol] Mean CFB - 20 weeks results: 5.38%
  [Total cholesterol] Median CFB - 20 weeks results: 7.04%
[13]
  [Total cholesterol] Mean CFB - 20 weeks results: 2.89%
  [Total cholesterol] Median CFB - 20 weeks results: 2.83%
[14]
  [Total cholesterol] Mean CFB - 20 weeks results: 3.80%
  [Total cholesterol] Median CFB - 20 weeks results: 2.28%
[15]
  [Total cholesterol] Mean CFB - 20 weeks results: 3.98%
  [Total cholesterol] Median CFB - 20 weeks results: 3.93%
[16]
  [Total cholesterol] Mean CFB - 20 weeks results: 6.98%
  [Total cholesterol] Median CFB - 20 weeks results: 6.38%
[17]
  [Total cholesterol] Mean CFB - 20 weeks results: 5.72%
  [Total cholesterol] Median CFB - 20 weeks results: 7.32%
[18]
  [Total cholesterol] Mean CFB - 20 weeks results: 5.28%
  [Total cholesterol] Median CFB - 20 weeks results: 3.89%
[19]
  [Total cholesterol] Mean CFB - 20 weeks results: 1.82%
  [Total cholesterol] Median CFB - 20 weeks results: 3.93%
[20]
  [Total cholesterol] Mean CFB - 20 weeks results: 5.24%
  [Total cholesterol] Median CFB - 20 weeks results: 1.36%
[21]
  [Total cholesterol] Mean CFB - 20 weeks results: 3.92%
  [Total cholesterol] Median CFB - 20 weeks results: 2.50%
Week 2
  [Total cholesterol] Mean CFB - 10 weeks results: 6.066%
  [Total cholesterol] Median CFB - 10 weeks results: 4.148%
  [Total cholesterol] Median CFB: 0.200 mmol/L
  [total cholesterol] Mean CFB: 0.231 mmol/L
Week 4
  [Total cholesterol] Mean CFB - 10 weeks results: 5.803%
  [Total cholesterol] Median CFB - 10 weeks results: 3.803%
  [Total cholesterol] Median CFB: 0.180 mmol/L
  [total cholesterol] Mean CFB: 0.194 mmol/L
Week 6
  [Total cholesterol] Mean CFB - 10 weeks results: 6.458%
  [Total cholesterol] Median CFB - 10 weeks results: 7.187%
  [Total cholesterol] Median CFB: 0.300 mmol/L
  [total cholesterol] Mean CFB: 0.215 mmol/L
Week 10
  [Total cholesterol] Mean CFB - 10 weeks results: 9.976%
  [Total cholesterol] Median CFB - 10 weeks results: 7.456%
